The results in this text go back to patent publication US8796470B2 (AbbVie Inc., priority 2010, dated 2014).

One may read the IC50 as the concentration that inhibits the measured activity by half.

T1 sequence (Q00975 whole entry): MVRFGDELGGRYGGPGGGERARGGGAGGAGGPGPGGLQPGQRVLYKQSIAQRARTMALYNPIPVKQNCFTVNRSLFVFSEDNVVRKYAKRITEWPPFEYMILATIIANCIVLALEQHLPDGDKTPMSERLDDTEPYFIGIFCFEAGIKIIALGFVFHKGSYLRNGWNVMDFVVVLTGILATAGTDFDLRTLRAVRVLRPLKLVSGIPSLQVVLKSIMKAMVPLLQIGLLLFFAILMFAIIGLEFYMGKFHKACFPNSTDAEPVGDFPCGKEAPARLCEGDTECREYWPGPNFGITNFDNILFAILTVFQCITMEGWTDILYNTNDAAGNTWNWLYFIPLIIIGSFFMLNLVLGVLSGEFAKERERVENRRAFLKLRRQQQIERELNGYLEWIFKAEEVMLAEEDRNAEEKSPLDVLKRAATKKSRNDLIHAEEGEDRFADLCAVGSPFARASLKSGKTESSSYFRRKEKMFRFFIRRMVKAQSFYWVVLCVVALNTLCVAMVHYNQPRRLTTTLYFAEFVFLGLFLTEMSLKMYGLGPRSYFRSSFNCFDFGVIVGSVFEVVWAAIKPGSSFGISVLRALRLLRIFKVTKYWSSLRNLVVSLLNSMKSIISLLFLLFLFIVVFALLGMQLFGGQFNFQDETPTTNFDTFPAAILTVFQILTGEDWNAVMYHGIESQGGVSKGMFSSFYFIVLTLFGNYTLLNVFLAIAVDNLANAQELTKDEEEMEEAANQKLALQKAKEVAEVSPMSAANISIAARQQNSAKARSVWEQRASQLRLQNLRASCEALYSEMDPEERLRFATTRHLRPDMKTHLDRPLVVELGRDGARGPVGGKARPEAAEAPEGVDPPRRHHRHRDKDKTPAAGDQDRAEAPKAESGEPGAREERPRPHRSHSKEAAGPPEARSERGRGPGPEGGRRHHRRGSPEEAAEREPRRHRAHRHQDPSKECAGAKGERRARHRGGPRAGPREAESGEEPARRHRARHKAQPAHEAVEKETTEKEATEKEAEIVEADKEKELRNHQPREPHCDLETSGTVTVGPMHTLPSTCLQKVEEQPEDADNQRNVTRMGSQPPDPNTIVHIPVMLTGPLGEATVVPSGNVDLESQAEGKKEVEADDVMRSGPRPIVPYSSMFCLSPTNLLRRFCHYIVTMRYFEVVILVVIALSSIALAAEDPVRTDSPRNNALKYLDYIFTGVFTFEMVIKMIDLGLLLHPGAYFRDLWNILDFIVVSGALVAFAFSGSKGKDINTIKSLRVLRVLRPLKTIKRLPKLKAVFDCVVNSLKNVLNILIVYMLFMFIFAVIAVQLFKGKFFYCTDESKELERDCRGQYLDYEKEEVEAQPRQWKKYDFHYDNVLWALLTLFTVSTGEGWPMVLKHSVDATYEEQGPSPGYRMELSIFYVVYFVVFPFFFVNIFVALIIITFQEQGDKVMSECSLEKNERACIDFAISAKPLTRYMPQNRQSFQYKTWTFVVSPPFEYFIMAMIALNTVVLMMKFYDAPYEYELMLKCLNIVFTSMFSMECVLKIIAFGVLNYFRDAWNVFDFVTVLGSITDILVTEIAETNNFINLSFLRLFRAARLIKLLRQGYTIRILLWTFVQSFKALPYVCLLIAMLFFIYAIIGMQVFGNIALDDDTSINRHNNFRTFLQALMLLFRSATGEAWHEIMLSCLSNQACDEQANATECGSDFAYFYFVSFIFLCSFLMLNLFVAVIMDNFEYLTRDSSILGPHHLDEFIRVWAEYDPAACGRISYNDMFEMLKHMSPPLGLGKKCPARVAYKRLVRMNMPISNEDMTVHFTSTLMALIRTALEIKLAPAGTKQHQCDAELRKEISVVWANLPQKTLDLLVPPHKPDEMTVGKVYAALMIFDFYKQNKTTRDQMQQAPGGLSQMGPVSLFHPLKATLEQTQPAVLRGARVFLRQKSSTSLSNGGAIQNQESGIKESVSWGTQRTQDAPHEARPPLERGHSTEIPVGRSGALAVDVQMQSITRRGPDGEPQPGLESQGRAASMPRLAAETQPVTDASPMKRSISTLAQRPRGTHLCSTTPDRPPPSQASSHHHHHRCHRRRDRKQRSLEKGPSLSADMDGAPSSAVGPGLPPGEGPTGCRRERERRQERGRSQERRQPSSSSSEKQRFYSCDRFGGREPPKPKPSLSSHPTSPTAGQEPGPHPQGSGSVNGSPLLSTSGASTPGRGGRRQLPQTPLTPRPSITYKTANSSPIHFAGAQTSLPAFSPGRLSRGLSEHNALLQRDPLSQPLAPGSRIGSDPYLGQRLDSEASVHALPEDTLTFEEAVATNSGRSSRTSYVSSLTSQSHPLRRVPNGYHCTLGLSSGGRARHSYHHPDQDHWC
T1 sequence (P54289 25-956 partner limits assumed): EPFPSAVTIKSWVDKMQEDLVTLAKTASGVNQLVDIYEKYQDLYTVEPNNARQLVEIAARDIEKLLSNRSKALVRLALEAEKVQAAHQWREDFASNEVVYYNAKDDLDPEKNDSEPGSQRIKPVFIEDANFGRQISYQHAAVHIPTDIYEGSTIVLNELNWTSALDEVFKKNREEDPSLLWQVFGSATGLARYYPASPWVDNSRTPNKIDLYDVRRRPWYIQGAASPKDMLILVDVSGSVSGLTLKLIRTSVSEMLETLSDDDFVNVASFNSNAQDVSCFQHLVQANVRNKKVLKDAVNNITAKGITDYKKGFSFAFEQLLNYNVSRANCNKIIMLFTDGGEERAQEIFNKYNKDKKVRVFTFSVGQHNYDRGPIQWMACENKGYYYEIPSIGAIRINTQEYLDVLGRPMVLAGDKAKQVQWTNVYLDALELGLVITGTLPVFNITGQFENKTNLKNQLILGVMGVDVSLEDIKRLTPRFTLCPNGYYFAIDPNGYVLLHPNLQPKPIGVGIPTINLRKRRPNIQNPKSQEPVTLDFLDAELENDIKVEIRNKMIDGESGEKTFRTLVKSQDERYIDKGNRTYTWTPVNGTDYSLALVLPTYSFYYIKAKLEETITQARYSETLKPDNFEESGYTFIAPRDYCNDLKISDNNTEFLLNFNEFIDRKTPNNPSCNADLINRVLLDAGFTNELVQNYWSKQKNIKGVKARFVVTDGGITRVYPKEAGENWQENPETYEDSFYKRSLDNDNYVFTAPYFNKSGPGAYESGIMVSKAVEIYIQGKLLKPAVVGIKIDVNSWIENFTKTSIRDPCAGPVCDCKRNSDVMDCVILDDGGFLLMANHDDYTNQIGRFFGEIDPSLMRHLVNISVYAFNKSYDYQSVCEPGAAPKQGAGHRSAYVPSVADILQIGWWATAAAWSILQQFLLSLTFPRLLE
T1 sequence (P54289 957-1103 partner limits assumed): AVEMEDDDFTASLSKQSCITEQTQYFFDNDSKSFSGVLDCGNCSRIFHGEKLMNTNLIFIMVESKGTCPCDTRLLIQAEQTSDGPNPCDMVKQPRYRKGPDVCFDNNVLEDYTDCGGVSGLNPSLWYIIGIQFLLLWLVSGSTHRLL
T1 sequence (P54284 whole entry partner): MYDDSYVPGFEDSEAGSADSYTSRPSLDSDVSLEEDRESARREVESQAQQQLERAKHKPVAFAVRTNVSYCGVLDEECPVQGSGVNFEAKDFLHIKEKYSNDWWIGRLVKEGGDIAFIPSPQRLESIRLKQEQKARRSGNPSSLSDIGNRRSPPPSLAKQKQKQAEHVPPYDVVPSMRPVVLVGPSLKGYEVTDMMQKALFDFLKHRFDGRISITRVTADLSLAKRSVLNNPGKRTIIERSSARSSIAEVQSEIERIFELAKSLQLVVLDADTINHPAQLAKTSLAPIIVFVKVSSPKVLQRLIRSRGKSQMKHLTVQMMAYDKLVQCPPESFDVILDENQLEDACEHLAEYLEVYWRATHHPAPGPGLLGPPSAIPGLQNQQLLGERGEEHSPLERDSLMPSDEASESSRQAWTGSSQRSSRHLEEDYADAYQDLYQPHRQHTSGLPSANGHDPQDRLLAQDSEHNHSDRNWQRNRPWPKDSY

The assay concerns the target T1, human Cav2.2 (Homo sapiens, UniProt Q00975).
T1 construct: IMR32 cells endogenously expressing human Cav2.2; endogenous in cells; host or cells: IMR32 cells (human neuroblastoma)
Nature of the assay: Assessment of calcium channel activity using FLIPR (Ca2+ influx in IMR32 cells). It is filed as cell-based. The following applies: IMR32 cells endogenously expressing human Cav2.2, Calcium 4 dye, 60 minute pre-incubation, 2 μM nifedipine, depolarized with 80 mM KCl, 5 mM CaCl2. The procedure: (i) In Vitro Methods—Assessment of Calcium Channel Activity Using FLIPR:
IMR32 cells endogenously expressing human Cav2.2 were assayed for Ca^2+ influx using a no-wash calcium indicator dye (Calcium 4 dye: Molecular Probes) and FLIPR technology (Lubin, M. L.; Reitz, T. L.; Todd, M. J.; Flores, C. M.; Qin, N.; Xin, H. Assay and Drug Development Technologies 2006, 4(6), 689-694.). The IMR32 cells were maintained in MEM media containing 10% (v/v) FBS, 1% (v/v) antibiotic/antimitotic, 1% (v/v) sodium pyruvate and 1% (v/v) MEM NEAA. Following dissociation in 0.05% (v/v) trypsin/EDTA, cells were seeded into black 1×96-well plates (Corning Cellbind) at a density of 1−1.2×10^5 cells/well and incubated in the maintenance media above for 48 hours at 37° C. Immediately prior to performing the assay the media was removed and cells were loaded for 1.5 hours with 1×Calcium 4 dye prepared in HBSS (137 mM NaCl, 5.4 mM KCl, 0.25 mM Na2HPO4, 0.44 mM KH2PO4, 1.3 mM CaCl2, 1 mM MgSO4, 4.2 mM NaHCO3) containing HEPES pH 7.4 at room temperature. After dye loading and a subsequent 60 minute pre-incubation with compounds (full log dilutions from 10 μM to 0.1 nM) in the presence of 1.3 mM CaCl2 and 2 μM nifedipine to block endogenous L-type channels, the external Ca^2+ concentration was increased to 5 mM CaCl2 and the cells concomitantly depolarized with 80 mM KCl to assay channel activity. To determine the IC50 values, the percent inhibition of the compound at each concentration was determined relative to the activity in the absence of inhibitor, and data was fitted using non-linear regression sigmoidal dose response curve analysis with GraphPad Prism®.
Take `FC(F)(F)c1cccc(N2C[C@H]3CC[C@H](n4ncc5ccccc54)[C@H]3C2)n1` [Example 65, 1-{(3aR,4S,6aS)-2-[6-(trifluoromethyl)pyridin-2-yl]octahydrocyclopenta[c]pyrrol-4-yl}-1H-indazole]: the IC50 was 4.85 µM. Turning to `O=C1CC[C@@H]2CN(c3cccc(C(F)(F)F)n3)C[C@H]12` [Example 32, (3aR,6aS)-2-[6-(trifluoromethyl)pyridin-2-yl]hexahydrocyclopenta[c]pyrrol-4(1H)-one], the IC50 worked out at 21.4 µM. Under `C[C@@]1(NC(=O)c2ccccc2)CC[C@@H]2CN(Cc3ccccc3)C[C@@H]21` [Example 2, N-[(3aR,4R,6aS)-2-benzyl-4-methyloctahydrocyclopenta[c]pyrrol-4-yl]benzamide] stands 11.5 µM; under `O[C@@H]1CC[C@@H]2CN(c3cccc(C(F)(F)F)n3)C[C@@H]21` [Example 30, (3aR,4R,6aS)-2-[6-(trifluoromethyl)pyridin-2-yl]octahydrocyclopenta[c]pyrrol-4-ol], 15.8 µM; under `CC(C)[C@@]1(O)CC[C@@H]2CN(c3cccc(C(F)(F)F)n3)C[C@@H]21` [Example 34, (3aR,4S,6aS)-4-isopropyl-2-[6-(trifluoromethyl)pyridin-2-yl]octahydrocyclopenta[c]pyrrol-4-ol], 3.05 µM. As for `CC(=O)N[C@@]1(C)CC[C@@H]2CN(c3cccc(C(F)(F)F)n3)C[C@@H]21` [Example 17, N-{(3aR,4S,6aS)-4-methyl-2-[6-(trifluoromethyl)pyridin-2-yl]octahydrocyclopenta[c]pyrrol-4-yl}acetamide], the IC50 is 3.27 µM.

For `FC(F)(F)c1cccc(N2C[C@H]3CC[C@H](n4cnc5ccccc54)[C@H]3C2)n1` [Example 60, 1-{(3aR,4S,6aS)-2-[6-(trifluoromethyl)pyridin-2-yl]octahydrocyclopenta[c]pyrrol-4-yl}-1H-benzimidazole], the IC50 was determined as 1.96 µM.

Regarding `Cc1ccn([C@H]2CC[C@@H]3CN(c4cccc(C(F)(F)F)n4)C[C@@H]32)n1` [Example 66, (3aR,4S,6aS)-4-(3-methyl-1H-pyrazol-1-yl)-2-[6-(trifluoromethyl)pyridin-2-yl]octahydrocyclopenta[c]pyrrole], the IC50 was determined as 5.74 µM.
